Holding throughout (assay type): cell-based
Common to all, as to details: CreLuc reporter gene assay

One assay deals with T1, hGLP1R (Homo sapiens, UniProt P43220).
T1 construct: expressed in transfected cells; host or cells: HEK-293 cells carrying a CRE-luciferase reporter gene
The assay is described as follows: hGLP1R CreLuc reporter gene assay in 0.5% and 100% plasma. In short, it runs like this:
(§1)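 Agonist EC50s came from 8-concentration curves over four decades, fitted by non-linear variable-slope regression of CRE-driven luciferase luminescence. Cells were exposed 4 h at 37 °C, in buffer with 0.5% human plasma or in 100% plasma; GIPR was expressed in CHO cells, GLP-1R and NPY2R in HEK cells.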

A further assay concerns the target T2, hGIPR (Homo sapiens, UniProt P48546).
T2 construct: expressed in transfected cells; host or cells: CHO cells carrying a CRE-luciferase reporter gene
T2 sequence (P48546 22-466): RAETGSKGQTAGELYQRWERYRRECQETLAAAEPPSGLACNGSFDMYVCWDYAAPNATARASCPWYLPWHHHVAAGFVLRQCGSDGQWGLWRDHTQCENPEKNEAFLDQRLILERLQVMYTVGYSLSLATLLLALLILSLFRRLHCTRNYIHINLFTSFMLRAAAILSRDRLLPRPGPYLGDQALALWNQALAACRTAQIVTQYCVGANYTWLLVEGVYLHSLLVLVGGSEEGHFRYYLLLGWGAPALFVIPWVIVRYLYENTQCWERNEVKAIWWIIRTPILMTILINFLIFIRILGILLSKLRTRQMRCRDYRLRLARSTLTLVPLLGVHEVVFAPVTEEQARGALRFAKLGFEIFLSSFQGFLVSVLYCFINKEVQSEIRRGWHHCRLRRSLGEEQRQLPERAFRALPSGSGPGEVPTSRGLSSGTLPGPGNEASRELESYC
Put plainly: hGIPR CreLuc reporter gene assay in 0.5% and 100% plasma. The essentials: as §1

For another assay, the target named is T3, hNPY2R (Homo sapiens, UniProt P49146).
T3 construct: expressed in transfected cells; host or cells: HEK-293 cells carrying a CRE-luciferase reporter gene
T3 sequence (P49146 1-381): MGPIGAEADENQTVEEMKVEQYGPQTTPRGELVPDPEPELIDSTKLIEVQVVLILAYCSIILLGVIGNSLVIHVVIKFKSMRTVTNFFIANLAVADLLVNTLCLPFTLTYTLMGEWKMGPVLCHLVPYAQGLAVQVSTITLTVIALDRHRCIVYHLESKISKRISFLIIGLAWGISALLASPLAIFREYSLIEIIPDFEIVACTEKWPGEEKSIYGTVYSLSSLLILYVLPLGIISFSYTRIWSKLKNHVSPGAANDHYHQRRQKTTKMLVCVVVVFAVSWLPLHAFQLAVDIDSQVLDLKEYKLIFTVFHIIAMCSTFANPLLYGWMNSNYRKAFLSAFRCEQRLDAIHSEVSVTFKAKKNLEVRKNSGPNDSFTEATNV
Put plainly: hNPY2R CreLuc reporter gene assay in 0.5% and 100% plasma. In short, it runs like this: as §1

The mark [1] stands for this setting: 0.5% human plasma, read-out: hGLP1R 0.5% hP.
Setting [2] is: 0.5% human plasma, read-out: hGIPR 0.5% hP.
The mark [3] stands for this setting: 0.5% human plasma, read-out: hNPY2R 0.5% hP.
Setting [4] is: 100% human plasma, read-out: hGIPR 100% hP.
The mark [5] stands for this setting: 100% human plasma, read-out: hNPY2R 100% hP.
[6] abbreviates: 100% human plasma, read-out: hGLP1R 100% hP.

Like-named read-outs stand apart in the source and are kept apart here. Starred links: 1 amine or outer side, 2 acyl side, 3 side chain; linkers in the order of their positions; H or OH if unused. Non-standard residues stand in square brackets, D forms with d. Groups on a side chain read outwards from the residue. *: point of attachment. C20 diacid = O=C(O)CCCCCCCCCCCCCCCCCCC(=O)*; C18 diacid = O=C(O)CCCCCCCCCCCCCCCCC(=O)*; γGlu = O=C(O)[C@H](CCC(=O)[*:2])N[*:1]; εLys = N[C@@H](CCCCN[*:1])C(=O)[*:2]; AEEA = NCCOCCOCC(=O)O; Aib = CC(C)(N)C(=O)O

T1 sequence (P43220 24-463): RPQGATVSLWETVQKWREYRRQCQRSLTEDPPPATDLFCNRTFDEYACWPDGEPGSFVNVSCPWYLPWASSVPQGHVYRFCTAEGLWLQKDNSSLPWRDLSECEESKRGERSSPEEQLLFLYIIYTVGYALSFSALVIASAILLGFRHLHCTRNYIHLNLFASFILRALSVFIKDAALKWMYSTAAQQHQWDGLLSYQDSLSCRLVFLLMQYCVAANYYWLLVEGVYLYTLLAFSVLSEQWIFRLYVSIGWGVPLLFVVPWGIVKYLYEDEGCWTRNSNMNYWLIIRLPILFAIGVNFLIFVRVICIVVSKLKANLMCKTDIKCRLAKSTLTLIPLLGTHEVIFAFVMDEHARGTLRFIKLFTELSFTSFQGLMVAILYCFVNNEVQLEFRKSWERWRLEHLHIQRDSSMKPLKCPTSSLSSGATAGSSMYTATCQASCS

On to “H-Y[Aib]EGTFTSDYSI[Aib]LEKQAQ[Aib]EFVEWLIK([γGlu-γGlu-γGlu-γGlu-γGlu-γGlu-C20 diacid])GGPSSGASLRHYYNWLTRQRY-NH2 [Compound 198, Y-Aib-E-G-T-F-T-S-D-Y-S-I-Aib-L-E-K-Q-A-Q-Aib-E-F-V-E-W-L-I-K(1,3)-GGPSSGASLRHYYNWLTRQRY-NH2.C20DA-gGlu-gGlu-gGlu-gGlu-gGlu-glu(1,2)]”, for which the EC50 was 0.47 nM on hGLP1R (setting [1]), 0.26 nM at hGIPR (setting [2]) and 13.1 nM at hNPY2R (setting [3]).

Regarding “H-Y[Aib]EGTFTSDYSI[Aib]LEKQAQ[Aib]EFVEWLIK([εLys-γGlu-γGlu-γGlu-γGlu-γGlu-C18 diacid])GGPSSGASLRHYYNWLTRQRY-NH2 [Compound 159, Y-Aib-E-G-T-F-T-S-D-Y-S-I-Aib-L-E-K-Q-A-Q-Aib-E-F-V-E-W-L-I-K(1,3)-GGPSSGASLRHYYNWLTRQRY-NH2.C18DA-gGlu-gGlu-gGlu-gGlu-gGlu-eLys(1,2)]”, the EC50 is 0.19 nM on hGLP1R (setting [1]); 0.35 nM on hGIPR (setting [2]); 0.91 nM on hGIPR (setting [4]); 13.8 nM at hNPY2R (setting [3]); 34.6 nM at hNPY2R (setting [5]).

With “H-Y[Aib]EGTFTSDYSI[Aib]LEKQAQ[Aib]EFVEWLIK([εLys-γGlu-γGlu-γGlu-γGlu-γGlu-γGlu-C20 diacid])GGPSEGASLRHYYNWLTRQRY-NH2 [Compound 275, Y-Aib-E-G-T-F-T-S-D-Y-S-I-Aib-L-E-K-Q-A-Q-Aib-E-F-V-E-W-L-I-K(1,3)-GGPSEGASLRHYYNWLTRQRY-NH2.C20DA-gGlu-gGlu-gGlu-gGlu-gGlu-gGlu-eLys(1,2)]”, the EC50 is 0.5 nM on hGLP1R (setting [1]), 0.27 nM on hGIPR (setting [2]), 1.75 nM at hGIPR (setting [4]) and 19.9 nM at hNPY2R (setting [3]).

On to “H-Y[Aib]EGTFTSDYSI[Aib]LEKQAQ[Aib]EFVEWLIK([εLys-γGlu-γGlu-γGlu-γGlu-γGlu-γGlu-γGlu-C20 diacid])GGPSSGASLRHYYNWLTRQRY-NH2 [Compound 88, Y-Aib-E-G-T-F-T-S-D-Y-S-I-Aib-L-E-K-Q-A-Q-Aib-E-F-V-E-W-L-I-K(1,3)-GGPSSGASLRHYYNWLTRQRY-NH2.C20DA-gGlu-gGlu-gGlu-gGlu-gGlu-gGlu-gGlu-eLys(1,2)]”, for which the EC50 amounted to 7.18 nM on hGLP1R (setting [6]), 0.53 nM at hGIPR (setting [2]), 1.58 nM at hGIPR (setting [4]) and 45.4 nM at hNPY2R (setting [5]).

As to “H-Y[Aib]EGTFTSDYSI[Aib]LEKQAQ[Aib]EFVQWLIK([AEEA-AEEA-γGlu-γGlu-γGlu-γGlu-γGlu-C20 diacid])GGPSSGASLRHYYNWLTRQRY-NH2 [Compound 36, Y-Aib-E-G-T-F-T-S-D-Y-S-I-Aib-L-E-K-Q-A-Q-Aib-E-F-V-Q-W-L-I-K(1,3)-GGPSSGASLRHYYNWLTRQRY-NH2.C20DA-gGlu-gGlu-gGlu-gGlu-gGlu-OEG-OEG(1,2)]”, the EC50 on hGLP1R (setting [1]) is 0.28 nM; on hGIPR (setting [2]), 0.26 nM; at hGIPR (setting [4]) it was 1.57 nM; on hNPY2R (setting [3]), 8.03 nM; at hNPY2R (setting [5]) it was 26.8 nM.

On to “H-Y[Aib]EGTFTSDYSI[Aib]LEKQAQ[Aib]EFVQWLIK([γGlu-γGlu-γGlu-γGlu-C18 diacid])GGPSEGASLRHYYNWLTRQRY-NH2 [Compound 202, Y-Aib-E-G-T-F-T-S-D-Y-S-I-Aib-L-E-K-Q-A-Q-Aib-E-F-V-Q-W-L-I-K(1,3)-GGPSEGASLRHYYNWLTRQRY-NH2.C18DA-gGlu-gGlu-gGlu-gGlu(1,2)]”, for which the EC50 at hGLP1R (setting [1]) is 0.21 nM; at hGLP1R (setting [6]), 10.4 nM; at hGIPR (setting [2]), 0.26 nM; at hGIPR (setting [4]), 1.81 nM; on hNPY2R (setting [3]) it was 12.9 nM.

Turning to “H-Y[Aib]EGTFTSDYSI[Aib]LEKQAQ[Aib]EFVQWLIK([γGlu-γGlu-γGlu-γGlu-C20 diacid])GGPSEGASLRHYYNWLTRQRY-NH2 [Compound 194, Y-Aib-E-G-T-F-T-S-D-Y-S-I-Aib-L-E-K-Q-A-Q-Aib-E-F-V-Q-W-L-I-K(1,3)-GGPSEGASLRHYYNWLTRQRY-NH2.C20DA-gGlu-gGlu-gGlu-gGlu(1,2)]”, the EC50 at hGLP1R (setting [1]) is 0.29 nM; at hGLP1R (setting [6]), 14.2 nM; at hGIPR (setting [2]), 0.2 nM; at hGIPR (setting [4]) it was 1.83 nM; on hNPY2R (setting [3]), 13.8 nM.

“H-Y[Aib]EGTFTSDYSI[Aib]LEKQAQ[Aib]EFVQWLIK([γGlu-γGlu-γGlu-γGlu-γGlu-C18 diacid])GGPSEGASLRHYYNWLTRQRY-NH2 [Compound 141, Y-Aib-E-G-T-F-T-S-D-Y-S-I-Aib-L-E-K-Q-A-Q-Aib-E-F-V-Q-W-L-I-K(1,3)-GGPSEGASLRHYYNWLTRQRY-NH2.C18DA-gGlu-gGlu-gGlu-gGlu-gGlu(1,2)]”: the EC50 on hGLP1R (setting [1]) is 0.25 nM; at hGIPR (setting [2]), 0.4 nM; on hNPY2R (setting [3]) it was 11.8 nM; at hNPY2R (setting [5]), 35.3 nM.

Regarding “H-Y[Aib]EGTFTSDYSI[Aib]LEKQAQ[Aib]EFVQWLIK([γGlu-γGlu-γGlu-γGlu-γGlu-γGlu-C18 diacid])GGPSEGASLRHYYNWLTRQRY-NH2 [Compound 151, Y-Aib-E-G-T-F-T-S-D-Y-S-I-Aib-L-E-K-Q-A-Q-Aib-E-F-V-Q-W-L-I-K(1,3)-GGPSEGASLRHYYNWLTRQRY-NH2.C18DA-gGlu-gGlu-gGlu-gGlu-gGlu-gGlu(1,2)]”, the EC50 at hGLP1R (setting [1]) was found to be 0.26 nM; at hGLP1R (setting [6]), 4.39 nM; at hGIPR (setting [2]), 0.91 nM; at hNPY2R (setting [3]), 18.9 nM.

“H-Y[Aib]EGTFTSDYSI[Aib]LEKQAQ[Aib]EFVQWLIK([γGlu-γGlu-γGlu-γGlu-γGlu-γGlu-C20 diacid])GGPSEGASLRHYYNWLTRQRY-NH2 [Compound 185, Y-Aib-E-G-T-F-T-S-D-Y-S-I-Aib-L-E-K-Q-A-Q-Aib-E-F-V-Q-W-L-I-K(1,3)-GGPSEGASLRHYYNWLTRQRY-NH2.C20DA-gGlu-gGlu-gGlu-gGlu-gGlu-gGlu(1,2)]”: the results for the EC50 at hGLP1R (setting [1]), at hGIPR (setting [2]) and at hNPY2R (setting [3]) were 0.4 nM, 0.33 nM and 13.3 nM, respectively.

For “H-Y[Aib]EGTFTSDYSI[Aib]LEKQAQ[Aib]EFVQWLIK([εLys-γGlu-γGlu-γGlu-γGlu-γGlu-C18 diacid])GGPSEGASLRHYYNWLTRQRY-NH2 [Compound 154, Y-Aib-E-G-T-F-T-S-D-Y-S-I-Aib-L-E-K-Q-A-Q-Aib-E-F-V-Q-W-L-I-K(1,3)-GGPSEGASLRHYYNWLTRQRY-NH2.C18DA-gGlu-gGlu-gGlu-gGlu-gGlu-eLys(1,2)]”, the EC50 at hGLP1R (setting [1]) was 0.26 nM; at hGIPR (setting [2]) it was 0.4 nM; on hGIPR (setting [4]) it was 1.07 nM; at hNPY2R (setting [3]) it was 10.7 nM.

Take “H-Y[Aib]EGTFTSDYSI[Aib]LEKQAQ[Aib]EFVQWLIK([εLys-γGlu-γGlu-γGlu-γGlu-γGlu-γGlu-C18 diacid])GGPSEGASLRHYYNWLTRQRY-NH2 [Compound 153, Y-Aib-E-G-T-F-T-S-D-Y-S-I-Aib-L-E-K-Q-A-Q-Aib-E-F-V-Q-W-L-I-K(1,3)-GGPSEGASLRHYYNWLTRQRY-NH2.C18DA-gGlu-gGlu-gGlu-gGlu-gGlu-gGlu-eLys(1,2)]”: the EC50 on hGLP1R (setting [1]) was determined as 0.25 nM; at hGIPR (setting [2]), 0.22 nM; at hGIPR (setting [4]) it was 1.21 nM; on hNPY2R (setting [3]), 18.9 nM; at hNPY2R (setting [5]) it was 58.5 nM.

As for “H-Y[Aib]EGTFTSDYSI[Aib]LEKQAQ[Aib]EFVQWLIK([εLys-γGlu-γGlu-γGlu-γGlu-γGlu-γGlu-γGlu-C20 diacid])GGPSSGASLRHYYNWLTRQRY-NH2 [Compound 43, Y-Aib-E-G-T-F-T-S-D-Y-S-I-Aib-L-E-K-Q-A-Q-Aib-E-F-V-Q-W-L-I-K(1,3)-GGPSSGASLRHYYNWLTRQRY-NH2.C20DA-gGlu-gGlu-gGlu-gGlu-gGlu-gGlu-gGlu-eLys(1,2)]”, the EC50 at hGLP1R (setting [1]) was 0.41 nM; on hGIPR (setting [2]) it was 0.64 nM; at hGIPR (setting [4]), 1.97 nM; on hNPY2R (setting [3]) it was 13.1 nM; at hNPY2R (setting [5]), 21.1 nM.
